# Read-outs that look alike come from different tables or passages of the source. Marks after values point to notes of the source that are not given here.
# How the values were obtained:
# physchem = assay type: physicochemical; conditions: 37 °C, pH 6.5, aqueous buffer, thermodynamic from solid
# Method: The stock solutions (10^–2 M) of the assayed compounds were diluted to decreased molarity, from 300 to 0.1 μM, in 384 well transparent plate (Greiner 781801) with 1% DMSO:99% PBS buffer. Then, they were incubated at 37 °C and the light scattering was measured after 2 h in a NEPHELOstar Plus (BMG LABTECH). The results were adjusted to a segmented regression to obtain the maximum concentration in which compounds are soluble.
# The solubility of each product was evaluated using an HPLC Agilent 1100 with a DAD detector. The samples were injected in an Agilent Poroshell 120 EC-C18, 2.7 μm, 50 mm × 4.6 mm column at 40 °C and 0.6 mL/min flow. The mobile phase was a mixture of A = water with 0.05% formic acid and B = acetonitrile with 0.05% formic acid. The procedure followed was from 95% A–5% B to 100% B in 3 min, 100% B in 3 min, from 100% B to 95% A–5% B in 1 min, 95% A–5% B in 3 min; the injection volume was set at 75 μL. […] The samples remained at these conditions between 12–24 h. Then, the samples were filtered through a 0.45 μm PVDF filter and either directly analyzed or diluted before analyzing. The obtained area under the curve was compared with the one from the standard solution.
# female gametes = assay: Female gamete inhibition assay; assay type: cell-based, Plasmodium falciparum; design: concentration or dose not given beside the values
# Method: Similarly, female gametes were activated as described previously.[31] Monoclonal anti-Pfs antibody conjugated to FITC was used to detect female gametes. Image acquisition was performed using a Zeiss Axio Lab.A1 epifluorescence microscope with a 100/1.4 numerical aperture (NA) oil immersion. Thirty images were captured per sample and analyzed manually.
# male gametes (PfNF54) = assay: Male gamete exflagellation inhibition assay (EIA); assay type: cell-based; conditions: Plasmodium falciparum; 2 μM, 48 h; read-out: male gamete inhibition %
# Method: The EIA was performed using video microscopy by capturing the movement of exflagellation centers over time as previously described.[4],[30] Mature PfNF54 stage V gametocytes (>95%;) were treated with 2 μM of drug for 48 h before the activation of exflagellation, without removing drug pressure. Movement was semi-automatically quantified from 15 videos of 8–10 s each between 15 and 22.5 min after incubation. Each video was analyzed using ICY-bio image analysis software.
# PfNF54 ABS [1] = system: PfNF54 ABS; design: method as in Stampolaki et al.[5]; conditions: drug-sensitive NF54; ref Stampolaki et al.[5]; read-out: Pf ABS IC50 NF54; cited from earlier work
# PfDd2 parasites = assay: Asexual blood stage activity, chloroquine-resistant Dd2; assay type: cell-based; conditions: Plasmodium falciparum, DD2, read-out: Pf ABS IC50 (Dd2)
# Source text: This strain is highly resistant to chloroquine and other antimalarials and is associated with increased export of e.g., chloroquine from the digestive vacuole.[23] This phenotype was also replicated in PfDd2 parasites, also resistant to chloroquine (among other antimalarials), with 4 and 5 losing activity but 1 similarly active (Table 1). These aromatic compounds may therefore be subject to resistance mechanisms similar to those found with chloroquine.
# HepG2 cells [2] = system: HepG2 cells; design: method as in Stampolaki et al.[5]; conditions: compound at 20 μM; ref Stampolaki et al.[5]; cited from earlier work
# PfK1 = assay: SYBR Green I proliferation assay, asexual blood stages, multidrug-resistant K1; conditions: for IC50: Plasmodium falciparum, K1, read-out: Pf ABS IC50 K1
# Method: (§1) P. falciparum asexual parasites were cultured from drug-sensitive NF54 (PfNF54) and multidrug resistant strains PfK1. Parasites were maintained in human erythrocytes (O+, suspended at 5% hematocrit) in RPMI-1640 culture medium (23.81 mM sodium bicarbonate, 0.024 mg/mL gentamycin, 25 mM HEPES pH 7.5, 0.2% D-glucose, 0.2 mM hypoxanthine and Albumax II) under hypoxic conditions (5% CO2, 5% O2 and 90% N2) with moderate shaking (60 rpm) at 37 °C. Cultures were synchronized to >95% in the ring stage with 5% (w/v) D-sorbitol treatment.[28]
# (§2) Activity against the asexual stage of P. falciparum was evaluated using the SYBR Green I-based fluorescence assay as previously described.[4],[16] Cellular proliferation was measured on synchronized in vitro PfNF54 ring-stage parasites (1% parasitemia, 2% hematocrit), following drug pressure for 96 h. Chloroquine was used as the positive drug control for complete inhibition of parasite proliferation.
# in vitro = in vitro ADME; conditions: microsomes
# Method: The microsomal stability assay used a single-point assay design (Di et al., 2004). Briefly, the compounds were incubated at 1 μM in human, rat, and mouse liver microsomes (0.4 mg/mL) for 30 min at 37 °C. Reactions were quenched by adding ice-cold acetonitrile containing internal standard (carbamazepine, 0.0236 μg/mL). The samples were then centrifuged, and the samples were analyzed by liquid chromatography with tandem mass spectrometry (LC-MS/MS) (Agilent Rapid Resolution HPLC, AB SCIEX 4500 MS) for the disappearance of the parent compound. Half-life, clearance and hepatic […] ratios were determined using standard equations.
# oocyst formation = assay: Standard membrane feeding assay (SMFA), oocyst formation in Anopheles coluzzii; assay type: in vivo; conditions: Plasmodium falciparum, 48 h drug treatment at 2 μM, single biological repeat
# Method: Transmission-blocking activity was confirmed in the standard membrane feeding assay (SMFA), by determining transmission-reducing activity (TRA; reduction in oocyst counts) and transmission-blocking activity (TBA, reduction in oocyst prevalence), 8–10 days after feeding female mosquitoes on gametocyte-infected blood, treated with selected compounds (at 2 μM).
# SMFA was performed using glass feeders as is outlined.[4],[16] Once again, mature stage V gametocytes (>95%) were treated with 2 μM of each compound for 48 h prior to feeding. Anopheles coluzzii females were allowed to feed on gametocyte cultures (1.5–2.5% gametocytemia, 50% hematocrit in A+ male serum with fresh erythrocytes) in the dark for 40 min. All unfed or partially fed mosquitoes were removed, and remaining females housed for 8–10 days. Mosquitoes were dissected to remove midguts, and oocysts counted under bright field illumination at ×20–×40 magnification. The percentage of block in transmission (transmission-blocking activity; TBA) and the percentage of reduction in the number of oocysts (transmission-reducing activity; TRA) were calculated after normalizing to the control untreated sample.
# [3] = system: PfNF54 LGc (stage IV/V gametocytes); assay: PrestoBlue late-stage gametocyte viability assay; assay type: cell-based, Plasmodium falciparum; conditions: for IC50: Plasmodium falciparum, stage IV/V gametocytes, 48 h drug pressure, read-out: PfNF54 LGc IC50
# Method: Gametocytogenesis was induced on highly synchronized (>95%) asexual ring-stage parasites from PfNF54 at 0.5% parasitemia and 6% hematocrit and thereafter maintained in glucose-deprived media as previously described.[29],[15] After 3 days, the hematocrit was decreased to 4%. Parasites were maintained in complete culture media supplemented with 50 mM N-acetyl-glucosamine 5–10 days post induction to inhibit proliferation of residual asexual blood stages. Gametocyte progression and morphology was also monitored microscopically using Giemsa-stained thin smears.
# activity against the sexual stages of P. falciparum was evaluated using the PrestoBlue fluorescence assay as previously described.[4] Activity was measured on PfNF54 stage IV/V gametocytes (2% gametocytemia, 5% hematocrit) previously seeded with compounds (in non-lethal DMSO) for 48 h drug pressure, after which PrestoBlue reagent was added and incubated for 2 h. Fluorescence was detected in the supernatant at 612 nm. Dihydroartemisinin (DHA) was used as a positive drug control.
# PfNF54 ABS [4] = assay: SYBR Green I proliferation assay, asexual blood stages, drug-sensitive NF54; conditions: for IC50: Plasmodium falciparum, NF54, 96 h, read-out: Pf ABS IC50 NF54
# Method: as §1, §2
# HepG2 cells [5] = assay: HepG2 cytotoxicity, LDH release assay; conditions: Homo sapiens, HepG2, 24 h, read-out: HepG2 EC50
# Method: (§3) Furthermore, compounds were evaluated against late (stage IV/V) gametocytes from PfNF54 (PfNF54 LGc), with viability detected with PrestoBlue,[15] and orthogonally evaluated for toxicity against a human hepatocellular carcinoma line, HepG2.[16]
# (§4) Human hepatocellular liver carcinoma cells (HepG2) were cultivated in vitro in Dulbecco’s Modified Eagle’s Medium (DMEM) supplemented with 10% (v/v) heat inactivated fetal bovine serum and 1% (v/v) penicillin/streptomycin.[14] Cells were detached with trypsin treatment at 80% confluency and were seeded in 96-well plates to adhere for 24 h under 5% CO2, humid (95%) conditions. Cells were subsequently exposed to drug pressure for 24 h and cytotoxicity was then determined using the lactate dehydrogenase (LDH) release assay through the colorimetric detection at 450 nm, as previously outlined.[4],[16]
# [6] = system: African field isolate SB05; assay: Ex vivo activity on clinical isolate SB05; assay type: cell-based, Plasmodium falciparum; conditions: Plasmodium falciparum, read-out: IC50 SB05
# Source text: Since SB03/05 are both multiclonal,[27] this warrants further investigation into the activity of this series toward clinical gametocytes.
# (A) Dose–response analysis of SQ109 on clinical isolates SB03 and SB05 in comparison to lab-adapted NF54 P. falciparum parasites. Data are from at least 2 independent biological repeats, mean ± SE indicated, * P < 0.05 is indicated. (B) IC50 for SQ109 analogs 13 and 19 against a contemporary African field isolate SB05. […] TEXT PRINTED IN THE PICTURE: (A) SQ109/1: IC50 (μM), NF54: 1.58 ± 0.20; IC50 (μM), SB03: 0.63 ± 0.01; IC50 (μM), SB05: 0.90 DOUBTS OF THE COPYIST ABOUT THIS PICTURE: Panel A: the three IC50 values are matched to NF54, SB03 and SB05 only by line style (black dashed, grey solid, grey dashed), not by a printed label beside the numbers.
# HepG2 cells [7] = system: HepG2 cells
# Method: as §3, §4
# [8] = read-out: oocyst formation (% inhibition) TBA
# [9] = read-out: oocyst formation (% inhibition) TRA
Compound,solubility (physchem),female gamete inhibition % (female gametes),inhibition at 2 µM (male gametes (PfNF54)),IC50 (PfNF54 ABS [1]),IC50 (PfDd2 parasites),HepG2 % viability (HepG2 cells [2]),fold higher IC50 against PfK1 (PfK1; PfK1 vs NF54),IC50 (PfK1),microsomal CLint at 1 µM (in vitro; human),microsomal CLint at 1 µM (in vitro; mouse),microsomal CLint at 1 µM (in vitro; rat),inhibition at 2 µM (oocyst formation; [8]),inhibition at 2 µM (oocyst formation; [9]),IC50 [3],fold improvement in ABS activity compared to 1 (PfNF54 ABS [4]; PfNF54 ABS),IC50 (PfNF54 ABS [4]),EC50 (HepG2 cells [5]),IC50 [6],fold improvement in gametocyte activity compared to 1 ([3]; PfNF54 LGc),cytotoxicity to HepG2 cells (in words) (HepG2 cells [7])
CC(C)=CCC/C(C)=C/CNCCNC1(c2ccccc2)C2CC3CC(C2)CC1C3 (centres unmarked) [Compound 5],30 µM,61.03 ± 14.35%,48 ± 24.8%,420 ± 90 nM,5660 nM,100%^c,14 ×,5990 ± 630 nM,400 µL/min/mg,343 µL/min/mg,514 µL/min/mg,63%,38%,210 ± 20 nM,,,,,,
CC(C)=CCC/C(C)=C/CNCCCNC1C2CC3CC(C2)CC1C3 (centres unmarked) [Compound 13],,87.02 ± 3.68%,90.9 ± 9.09%,,,,,1050 ± 90 nM,,,,64%,70%,120 ± 30 nM,1.6 fold,980 ± 80 nM,11800 ± 830 nM,490 ± 90 nM,1.2 fold,
CC(C)CCCC(C)CCNCCNC1C2CC3CC(C2)CC1C3 (centres unmarked) [Compound 19],,86.30 ± 2.58%,95.5 ± 4.55%,,,,,110 ± 10 nM,,,,36%,47%,300 ± 30 nM,,200 nM,3500 ± 90 nM,950 ± 310 nM,,moderately cytotoxic
